# According to patent US6737383B1, “Herbicidal oxadiazolidines” (priority 1999, dated 2004):
# Key:
# [1] = test system: green foxtail; assay: Test E green foxtail; assay type: in vivo, Setaria viridis; settings: Preemergence
# [2] = test system: blackgrass; assay: Test B pre/postemergence blackgrass; assay type: in vivo, Alopecurus myosuroides
# How it was run: (§1)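 Response is a visual 0-to-10 score relative to untreated plants, where 0 means no effect and 10 means complete control, taken twelve to sixteen days after application. Treatments went onto soil at planting and onto foliage of 1- to 4-leaf plants, using a surfactant-containing non-phytotoxic solvent.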
# [3] = test system: winter wheat; assay: Test E winter wheat; assay type: in vivo, Triticum aestivum; settings: Preemergence
# [4] = test system: velvetleaf; assay: Test B pre/postemergence velvetleaf; assay type: in vivo, Abutilon theophrasti
# How it was run: as §1
# [5] = test system: soybean; assay: Test B pre/postemergence soybean; assay type: in vivo, Glycine max
# How it was run: as §1
# [6] = test system: bedstraw; assay: Test B pre/postemergence bedstraw; assay type: in vivo, Galium aparine
# How it was run: as §1
# [7] = test system: wild oat; assay: Test E wild oat; assay type: in vivo, Avena fatua; settings: Preemergence
# [8] = test system: Italian ryegrass; assay: Test E Italian ryegrass; assay type: in vivo, Lolium multiflorum; settings: Preemergence
# [9] = test system: blackgrass; assay: Test E blackgrass; assay type: in vivo, Alopecurus myosuroides; settings: Preemergence
# [10] = test system: winter barley; assay: Test E winter barley; assay type: in vivo, Hordeum vulgare; settings: Preemergence
# [11] = test system: winter wheat; assay: Test E winter wheat; assay type: in vivo, Triticum aestivum; settings: Postemergence
# How it was run: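 Plants were grown under normal greenhouse practice; for postemergence, in sandy loam soil mixed 60:40 with potting mix, treated at the 1- to 4-leaf stage. The compound was in a non-phytotoxic solvent carrying a surfactant. After roughly 21 to 28 days plants were scored visually against untreated plants.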
# [12] = Rate 125 g/ha, 0 to 100 scale (0 no effect, 100 complete control)
# [13] = Rate 500 g/ha, 0 to 100 scale (0 no effect, 100 complete control)
# [14] = Rate 1000 g/ha, 0 to 100 scale, 0 no effect, 100 complete control
# [15] = Preemergence, Rate 250 g/ha, scale of 0 to 10 where 0 is no effect and 10 is complete control
# [16] = Preemergence, Rate 500 g/ha, scale of 0 to 10 where 0 is no effect and 10 is complete control
# [17] = Rate 62 g/ha, Postemergence, scale 0 to 10 (0 no effect, 10 complete control)
# [18] = Rate 125 g/ha, Postemergence, scale of 0 to 10 where 0 is no effect and 10 is complete control
# [19] = Rate 125 g/ha, Preemergence, scale of 0 to 10 where 0 is no effect and 10 is complete control
# [20] = Rate 250 g/ha, Postemergence, scale of 0 to 10 where 0 is no effect and 10 is complete control
# [21] = Rate 500 g/ha, Postemergence, scale 0 to 10, 0 no effect, 10 complete control
# [22] = Preemergence, Rate 62 g/ha, scale of 0 to 10 where 0 is no effect and 10 is complete control
# [23] = Rate 1000 g/ha, 0 to 100 scale where 0 is no effect and 100 is complete control
# [24] = Rate 500 g/ha, 0 to 100 scale, 0 is no effect, 100 is complete control
# [25] = Postemergence, Rate 125 g/ha, scale 0 to 10, 0 is no effect, 10 is complete control
# [26] = Postemergence, Rate 250 g/ha, scale 0 to 10, 0 is no effect, 10 is complete control
# [27] = Preemergence, Rate 62 g/ha, scale 0 to 10 (0 no effect, 10 complete control)
# [28] = Rate 62 g/ha, Postemergence, scale of 0 to 10 where 0 is no effect and 10 is complete control
smiles,measurement,setting,value
CC(C)N(C(=O)n1oc(=O)n(CC(C)(C)C)c1=O)c1ccc(F)cc1F [Compound 277],"Plant response rating, Green foxtail",[1]; [12],95
same,Green foxtail plant response rating (0 to 100 scale),[1]; Rate 250 g/ha,100
same,"Plant response rating, Green foxtail",[1]; [13],100
same,"Plant response rating, Green foxtail",[1]; [14],100
same,Blackgrass plant response rating,[2]; [15],10
same,"Plant response rating, Blackgrass",[2]; [16],10
same,Blackgrass plant response rating,[2]; [17],2
same,Blackgrass plant response rating,[2]; [18],8
same,Blackgrass plant response rating,[2]; [19],9
same,"Plant response rating, Blackgrass",[2]; [20],8
same,Blackgrass plant response rating,[2]; [21],8
same,"Plant response rating, Wheat (winter)",[3]; [12],30
same,Wheat (winter) plant response rating (0 to 100 scale),[3]; Rate 250 g/ha,20
same,"Plant response rating, Wheat (winter)",[3]; [13],10
same,"Plant response rating, Wheat (winter)",[3]; [14],50
same,Velvetleaf plant response rating,[4]; [22],0
same,Velvetleaf plant response rating,[4]; [15],6
same,"Plant response rating, Velvetleaf",[4]; [16],7
same,Velvetleaf plant response rating,[4]; [17],1
same,Velvetleaf plant response rating,[4]; [18],1
same,Velvetleaf plant response rating,[4]; [19],1
same,"Plant response rating, Velvetleaf",[4]; [20],1
same,Velvetleaf plant response rating,[4]; [21],1
same,Soybean plant response rating,[5]; [22],0
same,Soybean plant response rating,[5]; [15],0
same,"Plant response rating, Soybean",[5]; [16],4
same,Soybean plant response rating,[5]; [17],3
same,Soybean plant response rating,[5]; [18],4
same,Soybean plant response rating,[5]; [19],0
same,"Plant response rating, Soybean",[5]; [20],6
same,Soybean plant response rating,[5]; [21],8
same,Bedstraw plant response rating,[6]; [15],0
same,"Plant response rating, Bedstraw",[6]; [16],2
same,Bedstraw plant response rating,[6]; [17],5
same,Bedstraw plant response rating,[6]; [18],6
same,Bedstraw plant response rating,[6]; [19],0
same,"Plant response rating, Bedstraw",[6]; [20],8
same,Bedstraw plant response rating,[6]; [21],8
same,"Plant response rating, Wild oat",[7]; [12],50
same,Wild oat plant response rating (0 to 100 scale),[7]; Rate 250 g/ha,60
same,"Plant response rating, Wild oat",[7]; [13],65
same,"Plant response rating, Wild oat",[7]; [14],70
same,"Plant response rating, I. Ryegrass",[8]; [12],65
same,I. Ryegrass plant response rating (0 to 100 scale),[8]; Rate 250 g/ha,75
same,"Plant response rating, I. Ryegrass",[8]; [13],95
same,"Plant response rating, I. Ryegrass",[8]; [14],100
same,"Plant response rating, Blackgrass",[9]; [12],60
same,Blackgrass plant response rating (0 to 100 scale),[9]; Rate 250 g/ha,100
same,"Plant response rating, Blackgrass",[9]; [13],70
same,"Plant response rating, Blackgrass",[9]; [14],100
same,"Plant response rating, Barley (winter)",[10]; [12],30
same,Barley (winter) plant response rating (0 to 100 scale),[10]; Rate 250 g/ha,50
same,"Plant response rating, Barley (winter)",[10]; [13],65
same,"Plant response rating, Barley (winter)",[10]; [14],50
same,"Plant response rating, Wheat (winter)","[11]; Rate 125 g/ha, 0 to 100 scale, 0 is no effect, 100 is complete control",0
same,"Plant response rating, Wheat (winter)",[11]; [23],10
same,Wheat (winter) plant response rating,"[11]; Rate 250 g/ha, 0 to 100 scale where 0 is no effect and 100 is complete control",0
same,"Plant response rating, Wheat (winter)",[11]; [24],0
CC1CC1n1c(=O)on(C(=O)N(c2ccc(Cl)cc2)C(C)C)c1=O (stereo not shown) [Compound 369],"Plant response rating, Green foxtail","[1]; Rate 250 g/ha, 0 to 100 scale",50
same,"Plant response rating, Green foxtail",[1]; [13],85
same,"Plant response rating, Green foxtail",[1]; [14],100
same,"Plant response rating, Blackgrass",[2]; [25],0
same,"Plant response rating, Blackgrass",[2]; [26],5
same,"Plant response rating, Blackgrass",[2]; [27],0
same,Blackgrass plant response rating (0 to 10 scale),"[2]; Preemergence, Rate 125 g/ha",0
same,Blackgrass plant response rating,[2]; [15],2
same,Blackgrass plant response rating,[2]; [16],5
same,Blackgrass plant response rating,[2]; [28],0
same,"Plant response rating, Blackgrass",[2]; [21],5
same,"Plant response rating, Wheat (winter)","[3]; Rate 250 g/ha, 0 to 100 scale",60
same,"Plant response rating, Wheat (winter)",[3]; [13],55
same,"Plant response rating, Wheat (winter)",[3]; [14],70
same,"Plant response rating, Velvetleaf",[4]; [25],0
same,"Plant response rating, Velvetleaf",[4]; [26],0
same,"Plant response rating, Velvetleaf",[4]; [27],0
same,Velvetleaf plant response rating (0 to 10 scale),"[4]; Preemergence, Rate 125 g/ha",0
same,Velvetleaf plant response rating,[4]; [15],0
same,Velvetleaf plant response rating,[4]; [16],6
same,Velvetleaf plant response rating,[4]; [28],0
same,"Plant response rating, Velvetleaf",[4]; [21],3
same,"Plant response rating, Soybean",[5]; [25],0
same,"Plant response rating, Soybean",[5]; [26],1
same,"Plant response rating, Soybean",[5]; [27],0
same,Soybean plant response rating (0 to 10 scale),"[5]; Preemergence, Rate 125 g/ha",0
same,Soybean plant response rating,[5]; [15],0
same,Soybean plant response rating,[5]; [16],4
same,Soybean plant response rating,[5]; [28],0
same,"Plant response rating, Soybean",[5]; [21],1
same,"Plant response rating, Wild oat","[7]; Rate 250 g/ha, 0 to 100 scale",65
same,"Plant response rating, Wild oat",[7]; [13],70
same,"Plant response rating, Wild oat",[7]; [14],75
same,"Plant response rating, I. Ryegrass","[8]; Rate 250 g/ha, 0 to 100 scale",50
same,"Plant response rating, I. Ryegrass",[8]; [13],65
same,"Plant response rating, I. Ryegrass",[8]; [14],70
same,"Plant response rating, Blackgrass","[9]; Rate 250 g/ha, 0 to 100 scale",85
same,"Plant response rating, Blackgrass",[9]; [13],70
same,"Plant response rating, Blackgrass",[9]; [14],100
same,"Plant response rating, Barley (winter)","[10]; Rate 250 g/ha, 0 to 100 scale, 0 no effect, 100 complete control",70
same,"Plant response rating, Barley (winter)",[10]; [13],50
same,"Plant response rating, Barley (winter)",[10]; [14],60
same,"Plant response rating, Wheat (winter)","[11]; Rate 250 g/ha, 0 to 100 scale, 0 is no effect, 100 is complete control",60
same,"Plant response rating, Wheat (winter)",[11]; [23],70
same,"Plant response rating, Wheat (winter)",[11]; [24],70
